# Measurements: patent US10093678B2, “Azaspiro derivatives as TRPM8 antagonists” (RaQualia Pharma Inc., priority 2014, dated 2018)
# Counter-ions that a name gives are not always drawn.
# Biological target: T1, human TRPM8 (Homo sapiens, UniProt Q7Z2W7)
# T1 construct: expressed in transfected cells; host or cells: HEK293
# Assay: Menthol-induced Ca2+ influx in HEK293 cells stably expressing human TRPM8
# Assay type: cell-based
# Conditions: 30 microM menthol-induced Ca2+ influx, read-out: IC50 against TRPM8
# Protocol: Measurement of the Menthol-Induced Ca^2+ Influx in HEK293 Cells Stably Expressing Human TRPM8
# A cell-based Ca^2+ influx assay using HEK293 cells stably expressing human TRPM8 is used to identify the activity of compounds.
# HEK293 cells stably expressing human TRPM8 are grown in T175 flasks at 37° C. in a 5% CO2 humidified incubator to about 80% confluence. Media composition consists of Dulbecco's Modified Eagle Medium (high glucose), 10% fetal calf serum (FCS), 100 units/mLPenicillin, 100 microg/mL Streptomycin and 600 microg/mL Geneticine. At 24 hours prior to assay, cells are seeded in poly-D-lysine coated 384-well plates (BD FALCON) at a density of 30,000 cells per well in culture medium and grown overnight in 5% CO2 at 37° C. On the assay day, growth media is removed and cells are loaded with 0.5 microM Fluo4-AM (Molecular Probes) and 0.005% Pluronic F-127 dissolved in assay buffer (Hank's balanced salt solution (HBSS), 19.4 mM HEPES pH7.4, 2.5 mM Probenecid) for 1 hour at room temperature. After washing with assay buffer, the cells are preincubated with various concentrations of the compounds for 5 min. The changes in intracellular calcium concentration by addition of 30 microM menthol are monitored by the cell imaging technology by Hamamatsu Photonics Functional Drug Screening System (FDSS).
# The IC50 values for compounds of the present invention are determined from 11-point dose-response studies. Curves are generated using the average of duplicate wells for each data point. Finally, the IC50 values are calculated with the best-fit dose curve determined by XLfit (ID Business Solutions Ltd.).
# T1 sequence (Q7Z2W7 whole entry): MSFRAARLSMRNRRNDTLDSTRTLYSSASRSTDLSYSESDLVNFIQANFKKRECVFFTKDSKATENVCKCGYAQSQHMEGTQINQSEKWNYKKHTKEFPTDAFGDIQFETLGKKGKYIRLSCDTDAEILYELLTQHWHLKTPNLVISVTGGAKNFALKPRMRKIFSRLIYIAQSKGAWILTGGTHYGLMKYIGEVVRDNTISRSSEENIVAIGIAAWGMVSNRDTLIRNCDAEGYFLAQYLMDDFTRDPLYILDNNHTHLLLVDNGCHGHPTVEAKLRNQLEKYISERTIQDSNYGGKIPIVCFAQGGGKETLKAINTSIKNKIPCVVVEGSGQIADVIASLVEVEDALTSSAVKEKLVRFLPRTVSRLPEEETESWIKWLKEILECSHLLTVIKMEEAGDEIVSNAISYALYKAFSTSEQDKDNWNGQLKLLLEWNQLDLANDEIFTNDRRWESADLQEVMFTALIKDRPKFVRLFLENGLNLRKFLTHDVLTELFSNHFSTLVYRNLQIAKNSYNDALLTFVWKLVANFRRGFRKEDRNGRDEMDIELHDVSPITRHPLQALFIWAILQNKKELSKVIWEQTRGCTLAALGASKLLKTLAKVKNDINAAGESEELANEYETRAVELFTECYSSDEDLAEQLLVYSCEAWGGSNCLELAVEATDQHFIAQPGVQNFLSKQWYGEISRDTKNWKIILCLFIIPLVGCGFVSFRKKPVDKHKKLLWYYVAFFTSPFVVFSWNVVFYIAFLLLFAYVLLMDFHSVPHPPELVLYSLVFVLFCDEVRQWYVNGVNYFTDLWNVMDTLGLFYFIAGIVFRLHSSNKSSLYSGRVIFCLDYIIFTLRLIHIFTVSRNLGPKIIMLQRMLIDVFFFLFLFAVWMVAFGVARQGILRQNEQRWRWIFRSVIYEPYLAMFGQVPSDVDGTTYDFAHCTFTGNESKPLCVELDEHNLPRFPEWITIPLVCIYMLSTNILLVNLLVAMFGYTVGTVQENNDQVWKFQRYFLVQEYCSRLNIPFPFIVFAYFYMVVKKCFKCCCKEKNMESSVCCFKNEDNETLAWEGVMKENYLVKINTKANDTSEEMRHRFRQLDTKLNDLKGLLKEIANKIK
row,Compound,IC50
1,O=C(CN1C(=O)NC2(CCC(F)(F)CC2)C1=O)c1ccc(-c2n[nH]c3ccccc23)cc1 [Example 6-32],< 100 nM
2,Cc1nc(-c2ccc(C(=O)CN3C(=O)NC4(CCC(F)(F)CC4)C3=O)cc2)c2ccccc2n1 [Example 6-33],< 100 nM
3,Cc1ncncc1-c1ccc(C(=O)CN2C(=O)NC3(CCC(F)(F)CC3)C2=O)cc1 [Example 6-34],< 100 nM
4,O=C(CN1C(=O)NC2(CCC(F)(F)CC2)C1=O)c1ccc(-c2cccc(O)c2)cc1 [Example 6-35],< 100 nM
5,O=C(CN1C(=O)NC2(CCC(F)(F)CC2)C1=O)c1ccc(-c2ncccc2CO)cc1 [Example 6-36],< 100 nM
6,O=C(CN1C(=O)NC2(CCC(F)(F)CC2)C1=O)c1ccc(-c2nccc3cnccc23)cc1 [Example 6-37],< 100 nM
7,O=C(CN1C(=O)NC2(CCC(F)(F)CC2)C1=O)c1ccc(-c2cccn3ccnc23)cc1 [Example 6-38],< 100 nM
8,CCOc1ncccc1-c1ccc(C(=O)CN2C(=O)NC3(CCC(F)(F)CC3)C2=O)cc1 [Example 6-39],< 100 nM
9,CC(O)c1ccccc1-c1ccc(C(=O)CN2C(=O)NC3(CCC(F)(F)CC3)C2=O)cc1 (stereo not shown) [Example 6-40],< 100 nM
10,O=C(CN1C(=O)NC2(CCC(F)(F)CC2)C1=O)c1ccc(-c2cnccc2C(F)(F)F)cc1 [Example 6-41],< 100 nM
11,O=C1Cc2c(-c3ccc(C(=O)CN4C(=O)NC5(CCC(F)(F)CC5)C4=O)cc3)ccnc2N1 [Example 6-42],< 500 nM
12,N#Cc1ccnnc1-c1ccc(C(=O)CN2C(=O)NC3(CCC(F)(F)CC3)C2=O)cc1 [Example 6-43],< 100 nM
13,O=C(CN1C(=O)NC2(CCC(F)(F)CC2)C1=O)c1ccc(-c2nccc3ccncc23)cc1 [Example 6-44],< 100 nM
14,O=C(CN1C(=O)NC2(CCC(F)(F)CC2)C1=O)c1ccc(-c2cccc3ncncc23)cc1 [Example 6-45],< 100 nM
15,O=C(CN1C(=O)NC2(CCC(F)(F)CC2)C1=O)c1ccc(-c2cccnc2NCCO)cc1 [Example 6-46],< 500 nM
16,O=C(CN1C(=O)NC2(CCC(F)(F)CC2)C1=O)c1ccc(-c2cccnc2N2CC(O)C2)cc1 [Example 6-48],< 500 nM
17,O=C(CN1C(=O)NC2(CCC(F)(F)CC2)C1=O)c1ccc(-c2cccc3c2CC(O)C3)cc1 (stereo not shown) [Example 6-49],< 500 nM
18,O=C(CN1C(=O)NC2(CCC(F)(F)CC2)C1=O)c1ccc(-c2cccc3c2C(O)CC3)cc1 (stereo not shown) [Example 6-50],< 500 nM
19,O=C(CN1C(=O)NC2(CCC(F)(F)CC2)C1=O)c1ccc(-c2ncnc3cnccc23)cc1 [Example 6-51],< 500 nM
20,O=C1CCc2c(cccc2-c2ccc(C(=O)CN3C(=O)NC4(CCC(F)(F)CC4)C3=O)cc2)N1 [Example 6-52],< 500 nM
21,CS(=O)(=O)c1ccccc1-c1ccc(C(=O)CN2C(=O)NC3(CCC(F)(F)CC3)C2=O)cc1 [Example 6-53],< 500 nM

row,Compound,IC50
1,"O=C(CN1C(=O)NC2(CCC(F)(F)CC2)C1=O)c1ccc(-c2nccnc2OCCO)cc1 [Example 6-54, 8,8-difluoro-3-(2-(4-(3-(2-hydroxyethoxy)pyrazin-2-yl)phenyl)-2-oxoethyl)-1,3-diazaspiro[4.5]decane-2,4-dione]",< 100 nM
2,"NCc1ccccc1-c1ccc(C(=O)CN2C(=O)NC3(CCC(F)(F)CC3)C2=O)cc1 [Example 6-55, 3-(2-(2′-(aminomethyl)-[1,1′-biphenyl]-4-yl)-2-oxoethyl)-8,8-difluoro-1,3-diazaspiro[4.5]decane-2,4-dione hydrochloride]",< 100 nM
3,"NCc1ncccc1-c1ccc(C(=O)CN2C(=O)NC3(CCC(F)(F)CC3)C2=O)cc1 [Example 6-56, 3-(2-(4-(2-(aminomethyl)pyridin-3-yl)phenyl)-2-oxoethyl)-8,8-difluoro-1,3-diazaspiro[4.5]decane-2,4-dione]",< 500 nM
4,"CC(=O)NCc1ncccc1-c1ccc(C(=O)CN2C(=O)NC3(CCC(F)(F)CC3)C2=O)cc1 [Example 6-57, N-((3-(4-(2-(8,8-difluoro-2,4-dioxo-1,3-diazaspiro[4.5]decan-3-yl)acetyl)phenyl)pyridin-2-yl)methyl)acetamide]",< 100 nM
5,"NCc1ccncc1-c1ccc(C(=O)CN2C(=O)NC3(CCC(F)(F)CC3)C2=O)cc1 [Example 6-58, 3-(2-(4-(4-(aminomethyl)pyridin-3-yl)phenyl)-2-oxoethyl)-8,8-difluoro-1,3-diazaspiro[4.5]decane-2,4-dione]",< 100 nM
6,O=C(CN1C(=O)NC2(CCC(F)(F)CC2)C1=O)c1ccc(-c2ncnc3ncccc23)cc1 [Example 6-59],< 500 nM
7,O=C(CN1C(=O)NC2(CCC(F)(F)CC2)C1=O)c1ccc(-c2nccc3cn[nH]c23)cc1 [Example 6-62],< 500 nM
8,O=C(CN1C(=O)NC2(CCC(F)(F)CC2)C1=O)c1ccc(-c2ncc3ccccn23)cc1 [Example 6-63],< 100 nM
9,O=C(CN1C(=O)NC2(CCC(F)(F)CC2)C1=O)c1ccc(-c2ncn3ccccc23)cc1 [Example 6-64],< 500 nM
10,Cc1nc2c(-c3ccc(C(=O)CN4C(=O)NC5(CCC(F)(F)CC5)C4=O)cc3)cccc2[nH]1 [Example 6-65],< 500 nM
11,O=C(CN1C(=O)NC2(CCC(F)(F)CC2)C1=O)c1ccc(-c2cnn3ccccc23)cc1 [Example 6-67],< 100 nM
12,O=C(CN1C(=O)NC2(CCC(F)(F)CC2)C1=O)c1ccc(-c2cnn3cccnc23)cc1 [Example 6-68],< 100 nM
13,Cn1cc2c(-c3ccc(C(=O)CN4C(=O)NC5(CCC(F)(F)CC5)C4=O)cc3)cccc2n1 [Example 6-69],< 500 nM
14,O=C(CN1C(=O)NC2(CCC(F)(F)CC2)C1=O)c1ccc(-c2cccc3c2CCN3)cc1 [Example 6-72],< 500 nM
15,Cc1c(N)cncc1-c1ccc(C(=O)CN2C(=O)NC3(CCC(F)(F)CC3)C2=O)cc1 [Example 6-76],< 100 nM
16,Cc1ccc(C)c(-c2ccc(C(=O)CN3C(=O)NC4(CCC(F)(F)CC4)C3=O)cc2)c1 [Example 6-78],< 500 nM
17,Nc1cccnc1-c1ccc(C(=O)CN2C(=O)NC3(CCC(F)(F)CC3)C2=O)cc1 [Example 6-80],< 500 nM
18,O=C(CN1C(=O)NC2(CCC(F)(F)CC2)C1=O)c1ccc(-c2cnc3ccccn23)cc1 [Example 6-81],< 100 nM
19,Cc1cccnc1-c1ccc(C(=O)CN2C(=O)NC3(CCC(F)(F)CC3)C2=O)cc1 [Example 6-82],< 500 nM
20,COc1cccnc1-c1ccc(C(=O)CN2C(=O)NC3(CCC(F)(F)CC3)C2=O)cc1 [Example 6-84],< 100 nM
21,O=C(CN1C(=O)NC2(CCC(F)(F)CC2)C1=O)c1ccc(-c2nccn3ccnc23)cc1 [Example 6-85],< 500 nM

row,Compound,IC50
1,N#Cc1cccnc1-c1ccc(C(=O)CN2C(=O)NC3(CCC(F)(F)CC3)C2=O)cc1 [Example 6-87],< 100 nM
2,COc1cncc(-c2ccc(C(=O)CN3C(=O)NC4(CCC(F)(F)CC4)C3=O)cc2)c1 [Example 6-90],< 500 nM
3,Cc1ccc(C#N)c(-c2ccc(C(=O)CN3C(=O)NC4(CCC(F)(F)CC4)C3=O)cc2)n1 [Example 6-92],< 100 nM
4,N#Cc1cncnc1-c1ccc(C(=O)CN2C(=O)NC3(CCC(F)(F)CC3)C2=O)cc1 [Example 6-93],< 500 nM
5,O=C(CN1C(=O)NC2(CCC(F)(F)CC2)C1=O)c1ccc(-c2nccs2)cc1 [Example 6-95],< 500 nM
6,O=C(CN1C(=O)NC2(CCC(F)(F)CC2)C1=O)c1ccc(-c2ccc3ccncc3c2)cc1 [Example 6-96],< 500 nM
7,COc1nccnc1-c1ccc(C(=O)CN2C(=O)NC3(CCC(F)(F)CC3)C2=O)cc1 [Example 6-97],< 100 nM
8,N#Cc1cnccc1-c1ccc(C(=O)CN2C(=O)NC3(CCC(F)(F)CC3)C2=O)cc1 [Example 6-98],< 100 nM
9,NC(=O)c1ccccc1-c1ccc(C(=O)CN2C(=O)NC3(CCC(F)(F)CC3)C2=O)cc1 [Example 6-99],< 500 nM
10,O=C(CN1C(=O)NC2(CCC(F)(F)CC2)C1=O)c1ccc(-c2cnccn2)cc1 [Example 6-100],< 500 nM
11,CC(=O)c1ccccc1-c1ccc(C(=O)CN2C(=O)NC3(CCC(F)(F)CC3)C2=O)cc1 [Example 6-102],< 500 nM
12,O=C(CN1C(=O)NC2(CCC(F)(F)CC2)C1=O)c1ccc(-c2ccccc2CN2CCCC2)cc1 [Example 6-104],< 500 nM
13,O=C(CN1C(=O)NC2(CCC(F)(F)CC2)C1=O)c1ccc(-c2ccccc2CCO)cc1 [Example 6-106],< 100 nM
14,N#CCc1ccccc1-c1ccc(C(=O)CN2C(=O)NC3(CCC(F)(F)CC3)C2=O)cc1 [Example 6-108],< 100 nM
15,NC(=O)c1cccc(-c2ccc(C(=O)CN3C(=O)NC4(CCC(F)(F)CC4)C3=O)cc2)c1 [Example 6-110],< 500 nM
16,Nc1cnccc1-c1ccc(C(=O)CN2C(=O)NC3(CCC(F)(F)CC3)C2=O)cc1 [Example 6-113],< 500 nM
17,COCc1ccccc1-c1ccc(C(=O)CN2C(=O)NC3(CCC(F)(F)CC3)C2=O)cc1 [Example 6-114],< 100 nM
18,O=C(CN1C(=O)NC2(CCC(F)(F)CC2)C1=O)c1ccc(-c2cnc3cccnn23)cc1 [Example 6-116],< 100 nM
19,Nc1nccnc1-c1ccc(C(=O)CN2C(=O)NC3(CCC(F)(F)CC3)C2=O)cc1 [Example 6-117],< 500 nM
